Like-named read-outs stand apart in the source and are kept apart here.
Key:
Type in all cases: cell-based
NCI-H526 cell line = assay: Cell viability assay for H526 cell (EZ-Cytox); details: Homo sapiens, NCI-H526, 120 h; H526 cells, 5 days, 3000 nM to 0.46 nM
Summary of the method: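 Read-out was EZ-Cytox colorimetric absorbance at 450 nm, taken after brief plate shaking, with IC50 derived. Before reading, H526 cells had been cultured with test compound for 5 days.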

PLK1 = biological target: T1, PLK1 (Homo sapiens, UniProt P53350); assay: Luciferase assay for PLK1 in HeLa LgBit (Plk1-HiBit KI) cell line; details: 300 nM compound, luminescence after 9 hours
T1 construct: endogenous in cells; host or cells: HeLa LgBit (Plk1-HiBit KI): HeLa stably expressing LgBit, with a CRISPR/Cas9 knock-in of HiBit at the endogenous PLK1 locus
T1 sequence (P53350 whole entry): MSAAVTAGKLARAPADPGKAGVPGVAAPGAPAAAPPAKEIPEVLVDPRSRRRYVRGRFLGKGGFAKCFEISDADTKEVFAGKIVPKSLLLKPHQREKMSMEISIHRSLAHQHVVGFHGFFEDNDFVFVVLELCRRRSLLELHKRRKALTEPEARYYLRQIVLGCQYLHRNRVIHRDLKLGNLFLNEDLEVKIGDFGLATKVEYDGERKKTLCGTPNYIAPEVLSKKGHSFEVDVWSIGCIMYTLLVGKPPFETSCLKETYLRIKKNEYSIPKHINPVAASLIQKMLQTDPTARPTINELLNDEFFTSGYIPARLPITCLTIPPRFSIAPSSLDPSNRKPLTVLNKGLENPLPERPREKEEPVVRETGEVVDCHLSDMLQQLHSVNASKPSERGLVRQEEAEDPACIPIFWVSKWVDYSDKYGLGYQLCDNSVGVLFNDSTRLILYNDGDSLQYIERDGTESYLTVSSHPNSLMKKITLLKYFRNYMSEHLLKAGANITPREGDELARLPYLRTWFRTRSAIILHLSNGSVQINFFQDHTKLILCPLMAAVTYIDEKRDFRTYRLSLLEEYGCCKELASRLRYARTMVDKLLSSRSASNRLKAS
Summary of the method: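 Luminescence, followed in real time after adding compound at 300 nM and Endurazine substrate, is reported relative to DMSO-treated wells. Cells are a HeLa LgBit line with a Plk1-HiBit knock-in, synchronized by 2 mM thymidine for 24 h, released, and cultured 18 h before treatment.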

MRC-5 cell line = assay: Cell viability assay for MRC-5 cell line (EZ-Cytox); details: Homo sapiens, MRC5, 120 h, read-out: Activity: IC50 value of Exemplary Compound to MRC-5 cell line
Description: 4. Cell Viability Assay for MRC-5 Cell Line
(1) Culture of MRC-5 Cell Line
Passage of cultured cells was maintained within P15.
(2) Treatment of Compounds of the Present Invention
Then, it was cultured in 37° C.
(3) Cytotoxicity Experiment
CO2 incubator for 4 hours.

[1] = MRC-5 normal cell line, 5 days, 10000 nM to 1.52 nM, N.D. = no cytotoxicity until 10 μM

Row | Activity: ratio of the luminescense value of each Exemplary Compound treatment group to DMSO treatment group (PLK1) | Structure (SMILES) | IC50 (NCI-H526 cell line) | IC50 (MRC-5 cell line; [1]) | IC50 (MRC-5 cell line)
1 | ++ (++<0.6) | COc1cc(C(=O)NCC2CCN(CCC3CCN(c4cccc5c4C(=O)N(C4CCC(=O)NC4=O)C5=O)C3)CC2)ccc1Nc1ncc2c(n1)N(C1CCCC1)CC(F)(F)C(=O)N2C (stereo not drawn) [Compound 50, 4-((9-cyclopentyl-7,7-difluoro-5-methyl-6-oxo-6,7,8,9-tetrahydro-5H-pyrimido[4,5-b][1,4]diazepin-2-yl)amino)-N-((1-(2-(1-(2-(2,6-dioxopiperidin-3-yl)-1,3-dioxoisoindolin-4-yl)pyrrolidin-3-yl)ethyl)piperidin-4-yl)methyl)-3-methoxybenzamide] | < 0.03 µM | 11.3 µM | 
2 | ++ (++<0.6) | COc1cc(C(=O)NC2CN(CC3CCN(c4cccc5c4C(=O)N(C4CCC(=O)NC4=O)C5=O)CC3)C2)ccc1Nc1ncc2c(n1)N(C1CCCC1)CC(F)(F)C(=O)N2C (stereo not drawn) [Compound 138, 4-((9-cyclopentyl-7,7-difluoro-5-methyl-6-oxo-6,7,8,9-tetrahydro-5H-pyrimido[4,5-b][1,4]diazepin-2-yl)amino)-N-(1-((1-(2-(2,6-dioxopiperidin-3-yl)-1,3-dioxoisoindolin-4-yl)piperidin-4-yl)methyl)azetidin-3-yl)-3-methoxybenzamide] | < 0.05 µM | > 10 µM | 
3 | ++ (++<0.6) | COc1cc(C(=O)NC2CCN(C[C@H]3CCN(c4ccc5c(c4)C(=O)N(C4CCC(=O)NC4=O)C5=O)C3)CC2)ccc1Nc1ncc2c(n1)N(C1CCCC1)CC(F)(F)C(=O)N2C (stereo partly drawn) [Compound 49, 4-((9-cyclopentyl-7,7-difluoro-5-methyl-6-oxo-6,7,8,9-tetrahydro-5H-pyrimido[4,5-b][1,4]diazepin-2-yl)amino)-N-(1-(((3R)-1-(2-(2,6-dioxopiperidin-3-yl)-1,3-dioxoisoindolin-5-yl)pyrrolidin-3-yl)methyl)piperidin-4-yl)-3-methoxybenzamide] | < 0.05 µM | > 10 µM | 
4 | +++ (+++: <0.3) | COc1cc(C(=O)NC2CC3(CCN(CC4CCN(c5cccc6c5C(=O)N(C5CCC(=O)NC5=O)C6=O)CC4)CC3)C2)ccc1Nc1ncc2c(n1)N(C1CCCC1)CC(F)(F)C(=O)N2C (stereo not drawn) [Compound 136, 4-((9-cyclopentyl-7,7-difluoro-5-methyl-6-oxo-6,7,8,9-tetrahydro-5H-pyrimido[4,5-b][1,4]diazepin-2-yl)amino)-N-(7-((1-(2-(2,6-dioxopiperidin-3-yl)-1,3-dioxoisoindolin-4-yl)piperidin-4-yl)methyl)-7-azaspiro[3.5]nonan-2-yl)-3-methoxybenzamide] | < 0.03 µM | 6.52 µM | 
5 | ++ (++<0.6) | COc1cc(C(=O)N[C@H]2CC[C@H](N3CCN(c4cccc5c4C(=O)N(C4CCC(=O)NC4=O)C5=O)CC3)CC2)ccc1Nc1ncc2c(n1)N(C1CCCC1)CC(F)(F)C(=O)N2C (stereo partly drawn) [Compound 131, 4-((9-cyclopentyl-7,7-difluoro-5-methyl-6-oxo-6,7,8,9-tetrahydro-5H-pyrimido[4,5-b][1,4]diazepin-2-yl)amino)-N-((1r,4r)-4-(4-(2-(2,6-dioxopiperidin-3-yl)-1,3-dioxoisoindolin-4-yl)piperazin-1-yl)cyclohexyl)-3-methoxybenzamide] | < 0.05 µM | > 10 µM | 
6 | +++ (+++: <0.3) | COc1cc(C(=O)NC2CC(N(C)CCC3CCN(c4ccc5c(c4)C(=O)N(C4CCC(=O)NC4=O)C5=O)CC3)C2)ccc1Nc1ncc2c(n1)N(C1CCCC1)CC(F)(F)C(=O)N2C (stereo not drawn) [Compound 106, 4-((9-cyclopentyl-7,7-difluoro-5-methyl-6-oxo-6,7,8,9-tetrahydro-5H-pyrimido[4,5-b][1,4]diazepin-2-yl)amino)-N-(3-((2-(1-(2-(2,6-dioxopiperidin-3-yl)-1,3-dioxoisoindolin-5-yl)piperidin-4-yl)ethyl)(methyl)amino)cyclobutyl)-3-methoxybenzamide] | < 0.1 µM | > 10 µM | 
7 | ++ (++<0.6) | COc1cc(C(=O)NC2CCN(C(=O)CSc3cccc4c3C(=O)N(C3CCC(=O)NC3=O)C4=O)CC2)c(F)cc1Nc1ncc2c(n1)N(C1CCCC1)CC(F)(F)C(=O)N2C (stereo not drawn) [Compound 41, 4-((9-cyclopentyl-7,7-difluoro-5-methyl-6-oxo-6,7,8,9-tetrahydro-5H-pyrimido[4,5-b][1,4]diazepin-2-yl)amino)-N-(1-(2-((2-(2,6-dioxopiperidin-3-yl)-1,3-dioxoisoindolin-4-yl)thio)acetyl)piperidin-4-yl)-2-fluoro-5-methoxybenzamide] | < 0.2 µM | > 10 µM | 
8 | ++ (++<0.6) | COc1cc(C(=O)NN2CCC(N3CC4(CCN(c5cccc6c5C(=O)N(C5CCC(=O)NC5=O)C6=O)CC4)C3)CC2)c(F)cc1Nc1ncc2c(n1)N(C1CCCC1)CC(F)(F)C(=O)N2C (stereo not drawn) [Compound 209, 4-((9-cyclopentyl-7,7-difluoro-5-methyl-6-oxo-6,7,8,9-tetrahydro-5H-pyrimido[4,5-b][1,4]diazepin-2-yl)amino)-N-(4-(7-(2-(2,6-dioxopiperidin-3-yl)-1,3-dioxoisoindolin-4-yl)-2,7-diazaspiro[3.5]nonan-2-yl)piperidin-1-yl)-2-fluoro-5-methoxybenzamide] | < 0.05 µM | 5.31 µM | 
9 | ++ (++<0.6) | CN1C(=O)C(F)(F)CN(C2CCCC2)c2nc(Nc3ccc(C(=O)NC4CCN(C(=O)CCN5CCN(c6cccc7c6C(=O)N(C6CCC(=O)NC6=O)C7=O)CC5)CC4)cc3O)ncc21 (stereo not drawn) [Compound 72, 4-((9-cyclopentyl-7,7-difluoro-5-methyl-6-oxo-6,7,8,9-tetrahydro-5H-pyrimido[4,5-b][1,4]diazepin-2-yl)amino)-N-(1-(3-(4-(2-(2,6-dioxopiperidin-3-yl)-1,3-dioxoisoindolin-4-yl)piperazin-1-yl)propanoyl)piperidin-4-yl)-3-hydroxybenzamide] | < 0.1 µM | > 10 µM | 
10 | ++ (++<0.6) | COc1cc(C(=O)N[C@@H]2CCN(C(=O)COc3cccc4c3C(=O)N(C3CCC(=O)NC3=O)C4=O)C2)ccc1Nc1ncc2c(n1)N(C1CCCC1)CC(F)(F)C(=O)N2C (stereo partly drawn) [Compound 39, 4-((9-cyclopentyl-7,7-difluoro-5-methyl-6-oxo-6,7,8,9-tetrahydro-5H-pyrimido[4,5-b][1,4]diazepin-2-yl)amino)-N-((3R)-1-(2-((2-(2,6-dioxopiperidin-3-yl)-1,3-dioxoisoindolin-4-yl)oxy)acetyl)pyrrolidin-3-yl)-3-methoxybenzamide] | < 0.1 µM | > 10 µM | 
11 | ++ (++<0.6) | C=C[C@@]1(F)CN(C2CCCC2)c2nc(Nc3ccc(C(=O)NC4CCN(C(=O)CCN5CCN(c6cccc7c6C(=O)N(C6CCC(=O)NC6=O)C7=O)CC5)CC4)cc3OC)ncc2N(C)C1=O (single isomer, unassigned) [Compound 108] | < 0.1 µM | > 10 µM | 

Row | Structure (SMILES) | Activity: ratio of the luminescense value of each Exemplary Compound treatment group to DMSO treatment group (PLK1) | IC50 (NCI-H526 cell line) | IC50 (MRC-5 cell line; [1]) | IC50 (MRC-5 cell line)
12 | COc1cc(C(=O)NN2CCC(N3CC4(CCN(c5cccc6c5C(=O)N(C5CCC(=O)NC5=O)C6=O)CC4)C3)CC2)ccc1Nc1ncc2c(n1)N(C(C)C)CC(F)(F)C(=O)N2C (stereo not drawn) [Compound 213, 4-((7,7-difluoro-9-isopropyl-5-methyl-6-oxo-6,7,8,9-tetrahydro-5H-pyrimido[4,5-b][1,4]diazepin-2-yl)amino)-N-(4-(7-(2-(2,6-dioxopiperidin-3-yl)-1,3-dioxoisoindolin-4-yl)-2,7-diazaspiro[3.5]nonan-2-yl)piperidin-1-yl)-3-methoxybenzamide] | ++ (++<0.6) | < 0.03 µM | > 10 µM | 
13 | COc1cc(C(=O)NC2CCCN(CCN3CCN(c4cccc5c4C(=O)N(C4CCC(=O)NC4=O)C5=O)CC3)C2)ccc1Nc1ncc2c(n1)N(C1CCCC1)CC(F)(F)C(=O)N2C (stereo not drawn) [Compound 143, 4-((9-cyclopentyl-7,7-difluoro-5-methyl-6-oxo-6,7,8,9-tetrahydro-5H-pyrimido[4,5-b][1,4]diazepin-2-yl)amino)-N-(1-(2-(4-(2-(2,6-dioxopiperidin-3-yl)-1,3-dioxoisoindolin-4-yl)piperazin-1-yl)ethyl)piperidin-3-yl)-3-methoxybenzamide] | ++ (++<0.6) | < 0.1 µM |  | > 10 µM
14 | COc1cc(C(=O)NC2CCN(C(=O)CCN3CCN(c4ccc5c(c4)CN(C4CCC(=O)NC4=O)C5=O)CC3)CC2)ccc1Nc1ncc2c(n1)N(C(C)C)CC(F)(F)C(=O)N2C (stereo not drawn) [Compound 130, 4-((7,7-difluoro-9-isopropyl-5-methyl-6-oxo-6,7,8,9-tetrahydro-5H-pyrimido[4,5-b][1,4]diazepin-2-yl)amino)-N-(1-(3-(4-(2-(2,6-dioxopiperidin-3-yl)-1-oxoisoindolin-5-yl)piperazin-1-yl)propanoyl)piperidin-4-yl)-3-methoxybenzamide] | ++ (++<0.6) | < 0.03 µM | > 10 µM | 

Source: US20250114460A1, “NOVEL PLK1 DEGRADATION INDUCING COMPOUND” (UPPTHERA, INC., priority 2021, published 2025)
